According to US7655767B2, “Use of thiazolyl-pyridinium based dyes in optical layers for optical data recording” (priority 2004, dated 2010):

Tests used:
[1] = Thermal decomposition (TGA / DSC); format: physicochemical
Excerpt: The optical and thermal properties of the thiazolyl-pyridinium based dye compounds were studied. The dyes show high absorption at the desired wavelengths. In addition, the shape of the absorption spectra, that still remains critical to the disc reflectivity and formation of clean mark edges, are composed of one major band, comprised in a range of from 350 to 500 nm, preferably of from 350 to 400 nm.
Sharp threshold of thermal decomposition within the required temperature range characterizes the new thiazolylpyridinium based dyes which are assumed to be desirable for the application in optical layers for optical data recording.

[2] = Solubility in 2,2,3,3-tetrafluoropropanol; details: 20 °C, organic solvent or mixture

SMILES | TGA (decomp.) [1] [°C] | solubility [2] [mg/mL]
CC(C)[n+]1ccc(-c2nc(-c3ccccc3)cs2)cc1.[I-] [Example 7, 1-isopropyl-4-[4-phenyl-thiazolyl-(2)]-pyridiniumiodide] | 270 | > 50
COc1ccc(-c2csc(-c3cc[n+](C(C)C)cc3)n2)cc1 [Example 11] | 240 | > 50
C[n+]1ccc(-c2nc(C(C)(C)C)cs2)cc1.[I-] [Example 8, 1-methyl-4-[4-tert-butyl-thiazolyl-(2)]-pyridiniumiodide] | – | > 5e-05
C[n+]1ccc(-c2nc(-c3ccccc3)cs2)cc1.[I-] [Example 9, 1-methyl-4-[4-phenyl-thiazolyl-(2)]-pyridinium iodide] | 260 | > 30

Second part, led by results:

TGA (decomp.) [1] [°C] | SMILES | solubility [2] [mg/mL]
250 | COc1ccc(-c2csc(-c3cc[n+](C)cc3)n2)cc1.[I-] [Example 10, 4-[4-(4-methoxy-phenyl)-thiazol-2-yl]-1-methyl-pyridinium iodide] | > 50
244 | C[n+]1ccc(-c2nc3ccc(Cl)cc3s2)cc1.[I-] [Example 12, 1-methyl-4-(6-chlor-benzothiazol-2-yl)pyridinium iodide] | > 50
